How the values were obtained:
[1] = Dissolution of substrate in the reagents of Example 3; assay type: physicochemical; conditions: reagents of Example 3 without their substrates, 50 mM Good Buffer pH 7.0; substrate 2 mM in Example 3
Excerpt: An attempt was made to use the substrates listed below instead of the substrates in Example 3, but the former substrates were not dissolved in the reagents in Example 3 (excluding substrates in Example 3).

α-amylase = experiment: Change in absorbance per minute at 400 nm with sample serum (indication of amylase activity); assay type: biochemical; conditions: 3 ml reagent added to sample serum, 5-6 minutes at 37° C.
Experimental: (§1) With this reagent, variation in absorbance was determined in a similar manner to Example 2. A 3 ml quantity of the reagent was added to […] of sample serum and allowed to stand for 5-6 minutes at 37° C. and thereafter, the variation in absorbance at 400 nm was determined and the change in absorbance per one minute which is an indication of amylase activity was calculated The variation in blank value of the reagent with time and the change in absorbance per minute are shown in Table 2 below.

[2] = test system: α-Glucosidase, β-Glucosidase; experiment: Variation in blank value of reagent with time (absorbance at 400 nm), reagent with α-glucosidase and β-glucosidase; assay type: biochemical; conditions: substrate 2 mM
Experimental: Reagents having the following composition were prepared.
50 mM Good Buffer (pH 7.0)
Substrate (see Table 1) 2 mM
Immediately after the preparation of the reagents, after 10 minutes, 20 minutes and 30 minutes, the absorbance of each reagent at 400 nm was determined (3 ml of reagent sample; 37° C.).
The reagent having the following composition was prepared:
(§2) Substrate (see Table 2) 2 mM

[3] = test system: α-Glucosidase, β-Glucosidase, Glucoamylase; experiment: Variation in blank value of reagent with time (absorbance at 400 nm), reagent with α-glucosidase, β-glucosidase and glucoamylase; assay type: biochemical; conditions: Table 2, glucoamylase added (10 U/ml), substrate 2 mM; for Absorbance at 400 nm (blank value), on reaction initiation: pH 7.0, α-glucosidase 80 U/ml, β-glucosidase 10 U/ml; for Absorbance at 400 nm (blank value), after 10 min. / Absorbance at 400 nm (blank value), after 20 min. / Absorbance at 400 nm (blank value), after 30 min.: pH 7.0
Experimental: as §1
The reagent of the following composition was prepared:
as §2

[4] = Table 1, 50 mM Good Buffer pH 7.0, α-glucosidase 80 U/ml, β-glucosidase 10 U/ml, 37° C., immediately after preparation
[5] = Table 1, pH 7.0, α-glucosidase 80 U/ml, β-glucosidase 10 U/ml, 37° C.
[6] = Table 2, no glucoamylase, pH 7.0

SMILES	Solubility of substrate in the reagents in Example 3 [1]	Change in absorbance (α-amylase; glucoamylase added (10 U/ml))	Absorbance at 400 nm (blank value), on reaction initiation [2, 4]	Absorbance at 400 nm (blank value), after 10 min. [2, 5]	Absorbance at 400 nm (blank value), after 20 min. [2, 5]	Absorbance at 400 nm (blank value), after 30 min. [2, 5]	Absorbance at 400 nm (blank value), on reaction initiation [3]	Absorbance at 400 nm (blank value), after 10 min. [3]	Absorbance at 400 nm (blank value), after 20 min. [3]	Absorbance at 400 nm (blank value), after 30 min. [3]	further results
CC(=O)CC1OC[C@H]2O[C@H](O[C@H]3[C@H](O)[C@@H](O)[C@@H](O[C@H]4[C@H](O)[C@@H](O)[C@@H](O[C@H]5[C@H](O)[C@@H](O)[C@@H](O[C@H]6[C@H](O)[C@@H](O)[C@H](Oc7ccc([N+](=O)[O-])cc7Cl)O[C@@H]6CO)O[C@@H]5CO)O[C@@H]4CO)O[C@@H]3CO)[C@H](O)[C@@H](O)[C@@H]2O1 (stereo partly drawn) [Example 2, 3-ketobutylidene 2-chloro-4-nitrophenyl-β-maltopentaoside]		0.157 per minute	0.049	0.049	0.049	0.050	0.051	0.051	0.051	0.052	Change in absorbance (α-amylase; no glucoamylase): 0.123 per minute; Absorbance at 400 nm (blank value), on reaction initiation ([2]; Table 2, no glucoamylase, pH 7.0, α-glucosidase 80 U/ml, β-glucosidase 10 U/ml): 0.050; Absorbance at 400 nm (blank value), after 10 min. [2, 6]: 0.051; Absorbance at 400 nm (blank value), after 20 min. [2, 6]: 0.051; Absorbance at 400 nm (blank value), after 30 min. [2, 6]: 0.051
O=[N+]([O-])c1ccc(O[C@@H]2O[C@H](CO)[C@@H](O[C@H]3O[C@H](CO)[C@@H](O[C@H]4O[C@H](CO)[C@@H](O[C@H]5O[C@H](CO)[C@@H](O[C@H]6O[C@H](CO)[C@@H](O)[C@H](O)[C@H]6O)[C@H](O)[C@H]5O)[C@H](O)[C@H]4O)[C@H](O)[C@H]3O)[C@H](O)[C@H]2O)c(Cl)c1 [compound 1, 2-chloro-4-nitrophenyl-β-maltopentaoside, reference compound]		0.136 per minute	0.251	0.273	0.293	0.323	0.132	0.162	0.192	0.223	

Now from value to compound, other results behind:

Solubility of substrate in the reagents in Example 3 [1]	SMILES	Change in absorbance (α-amylase; glucoamylase added (10 U/ml))	Absorbance at 400 nm (blank value), on reaction initiation [2, 4]	Absorbance at 400 nm (blank value), after 10 min. [2, 5]	Absorbance at 400 nm (blank value), after 20 min. [2, 5]	Absorbance at 400 nm (blank value), after 30 min. [2, 5]	Absorbance at 400 nm (blank value), on reaction initiation [3]	Absorbance at 400 nm (blank value), after 10 min. [3]	Absorbance at 400 nm (blank value), after 20 min. [3]	Absorbance at 400 nm (blank value), after 30 min. [3]	further results
not dissolved	O=[N+]([O-])c1ccc(O[C@@H]2O[C@H](CO)[C@@H](O[C@H]3O[C@H](CO)[C@@H](O[C@H]4O[C@H](CO)[C@@H](O[C@H]5O[C@H](CO)[C@@H](O[C@H]6O[C@@H]7COCO[C@H]7[C@H](O)[C@H]6O)[C@H](O)[C@H]5O)[C@H](O)[C@H]4O)[C@H](O)[C@H]3O)[C@H](O)[C@H]2O)c(Cl)c1 [Methylidene 2-chloro-4-nitrophenyl-β-maltopentaoside]										
not dissolved	O=[N+]([O-])c1ccc(O[C@@H]2O[C@H](CO)[C@@H](O[C@H]3O[C@H](CO)[C@@H](O[C@H]4O[C@H](CO)[C@@H](O[C@H]5O[C@H](CO)[C@@H](O[C@H]6O[C@@H]7COC(c8ccccc8)O[C@H]7[C@H](O)[C@H]6O)[C@H](O)[C@H]5O)[C@H](O)[C@H]4O)[C@H](O)[C@H]3O)[C@H](O)[C@H]2O)c(Cl)c1 (stereo partly drawn) [Benzylidene 2-chloro-4-nitrophenyl-β-maltopentaoside]										
not dissolved	CC1(C)OC[C@H]2O[C@H](O[C@H]3[C@H](O)[C@@H](O)[C@@H](O[C@H]4[C@H](O)[C@@H](O)[C@@H](O[C@H]5[C@H](O)[C@@H](O)[C@@H](O[C@H]6[C@H](O)[C@@H](O)[C@H](Oc7ccc([N+](=O)[O-])cc7Cl)O[C@@H]6CO)O[C@@H]5CO)O[C@@H]4CO)O[C@@H]3CO)[C@H](O)[C@@H](O)[C@@H]2O1 [Isopropylidene 2-chloro-4-nitrophenyl-β-maltopentaoside]										

— patent US4987067A, “Maltooligosaccharide derivatives and reagents for determination of amylase activity” (Yoshitomi Pharmaceutical Industries, Ltd., priority 1987, dated 1991)
